Literature values, collected in patent publication US20050271754A1, “Composition for prevention or treatment of an alcohol hangover” (priority 2004, published 2005).

Tested on: acetaldehyde levels in the blood, liver and brain
Settings: increases the oxidation cycle of ethanol

N[C@@H](CS)C(=O)O [L-cysteine]
acetaldehyde levels in the blood, liver and brain: lowering acetaldehyde levels
